Results on 15 compounds are retold here after US20240343666A1, “PERINAPHTHENONE COMPOUND AND USE THEREOF” (INSTITUTE OF MEDICINAL BIOTECHNOLOGY, CHINESE ACADEMY OF …, priority 2021, published 2024).

Read-outs that look alike come from different tables or passages of the source. Some results are limits rather than exact numbers.

One data set has as its target TRIM25 (Homo sapiens, UniProt Q14258). The data set can be described thus: Biolayer interferometry (BLI) binding to TRIM25. The conditions noted are these: in vitro. The source says: (§1) To further investigate the mechanism of degradation of PA protein by compound C1, the inventors tested the binding ability of the compound to TRIM25 protein and PA protein using biolayer interferometry (BLI). […] Meanwhile, the compounds also have the ability of binding PA in vitro.
(BLI is a label-free optical method that tracks binding on a fibre tip over time.)

In data set [1] the target is influenza virus PA protein (UniProt P15659). The data set is classed as cell-based. The conditions noted are these: read-out: PA remaining EC50.
Data set [2] concerns influenza A virus (IAV) A/WSN/33 (H1N1). The data set can be described thus: microbe, parasite or virus in culture. The conditions noted are these: read-out: Anti-influenza activity EC50. Type of data set: cell-based.
Data set [3] in a line: Cell viability assay (CCK-8). Type of data set: cell-based. The conditions noted are these: human; 293T-Gluc cells, CCK-8, 48 h. The source says: CCK-8 (Cell Counting Kit-8) kit is a rapid and highly sensitive detection kit based on WST-8 (water-soluble tetrazolium salt, chemical name: 2-(2-methyloxy-4-nitrophenyl)-3-(4-nitrophenyl)-5-(2,4-disulfophenyl)-2H-tetrazole monosodium salt) and widely applied to cell proliferation and cytotoxicity. WST-8 is a compound similar to MTT, and can be reduced by some dehydrogenases in mitochondria to produce orange-yellow formazan in the presence of an electron coupling reagent. The more and faster the cell proliferation, the darker the color; and the greater the cytotoxicity, the lighter the color. For the same cells, there is a linear relationship between the depth of color and the number of cells. The number of living cells can be indirectly reflected by measuring the light absorption value via an enzyme-linked immunosorbent assay instrument at a wavelength of 450 nm. 293T-Gluc cells were inoculated in a 96-well plate at 2.5×10^4 cells per well, and incubated in 100 μL of DMEM culture medium containing 10% FBS. 24 h after cell plating, 1 μL of the gradiently diluted test compound was added per well (the test compound was dissolved in DMSO and diluted with DMSO). Meanwhile, a blank control (only 100 μL of DMEM culture medium was added), a positive control (1 μL Ribavirin was added), and a negative control (1 μL DMSO was added) were set, and incubated at 37° C. for 48 h. The 96-well plate was taken out, and 10 μL of CCK-8 was added to each well. […] The experiment was repeated three times.

Data set [4] has as its target T1, PA protein (Influenza A virus, UniProt P15659). The data set can be described thus: Biolayer interferometry (BLI) binding to PA. The conditions noted are these: in vitro.
From the text: as §1

Data set [5] concerns the target T1, PA protein. Type of data set: cell-based.
The target in data set [6] is T1, PA protein. Nature of the data set: Ubiquitination of PA protein in HEK293T cells (immunoprecipitation, Western Blotting). The data set is classed as cell-based.
Data set [7] deals with T1, PA protein. The data set can be described thus: In vitro ubiquitination test. Type of data set: biochemical.
For the next data set, the target named is TRIM25 with PA protein (UniProt P15659+Q14258). Nature of the data set: Interaction of TRIM25 with PA in HEK293T cells (co-immunoprecipitation). Type of data set: cell-based.

Sequence of TRIM25 (Q14258 whole entry, species assumed): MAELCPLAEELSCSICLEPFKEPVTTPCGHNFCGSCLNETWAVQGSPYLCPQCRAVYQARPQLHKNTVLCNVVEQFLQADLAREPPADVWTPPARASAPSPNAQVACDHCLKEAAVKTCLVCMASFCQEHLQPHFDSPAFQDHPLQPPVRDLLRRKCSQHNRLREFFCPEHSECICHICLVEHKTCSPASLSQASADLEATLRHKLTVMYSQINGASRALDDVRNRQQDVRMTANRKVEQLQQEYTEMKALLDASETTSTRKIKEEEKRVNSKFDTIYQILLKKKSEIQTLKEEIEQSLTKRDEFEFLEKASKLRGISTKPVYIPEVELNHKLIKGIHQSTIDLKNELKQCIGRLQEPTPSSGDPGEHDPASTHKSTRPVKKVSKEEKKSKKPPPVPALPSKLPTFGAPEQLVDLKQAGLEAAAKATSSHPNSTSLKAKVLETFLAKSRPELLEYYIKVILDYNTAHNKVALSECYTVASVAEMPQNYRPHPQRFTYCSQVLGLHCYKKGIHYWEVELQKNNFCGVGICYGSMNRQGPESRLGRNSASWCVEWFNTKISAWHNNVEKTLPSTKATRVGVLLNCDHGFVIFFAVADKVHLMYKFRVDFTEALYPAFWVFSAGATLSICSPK

For orientation: Kd means the constant that tells how readily two partners part at equilibrium. By EC50 is commonly meant the concentration needed to bring the measured effect to its halfway point. As usually defined, the CC50 is the concentration giving 50% cytotoxicity. The compound `C/C(=C\CC/C(C)=C/C[C@]1(O)C(=O)c2c(O)cc(C)c3c(O)cc(O)c(c23)C1=O)CC/C=C(\CO)CC[C@@H](O)C(C)(C)O` [Compound C11] gave a Kd on TRIM25 of 12000 to 43000 nM. The DC50 in data set [1] amounted to 620 ± 150 nM. In addition, in data set [2], the EC50 came to 910 ± 80 nM. In [3], this compound had a CC50 at 48 h of more than 100000 nM.

For the compound `NC(=O)c1ncn([C@@H]2O[C@H](CO)[C@@H](O)[C@H]2O)n1` [Ribavirin, reference compound], the EC50 in data set [2] (Influenza A virus, 24 h) is 27800 ± 650 nM. The same compound displayed a CC50 at 48 h in data set [3] of more than 100000 nM.

As to `C/C(=C\CC/C(C)=C/C[C@]1(O)C(=O)c2c(O)cc(C)c3c(O)c(C)c(O)c(c23)C1=O)CC/C=C(\CO)CCC1OC(C)(C)OC1(C)C` (some centres unmarked) [Compound C7], the Kd on TRIM25 was 12000 to 43000 nM. For the same compound, in data set [1], the DC50 was found to be 1050 ± 190 nM. Besides, the EC50 in [2] (Influenza A virus, 24 h) was 450 to 2220 nM; in data set [2], 780 ± 20 nM. The same compound displayed a CC50 at 48 h in data set [3] of more than 100000 nM.

For the compound `C/C(=C\C[C@]1(O)C(=O)c2c(O)cc(C)c3c(O)c(C)c(O)c(c23)C1=O)CC/C=C(\C)CCC(O)[C@@]1(C)CC[C@H](C(C)(C)O)O1` (relative stereo) [Compound C10], the Kd at TRIM25 lay in the range of 12000 to 43000 nM. Further, the DC50 in data set [1] was found to be 880 ± 80 nM. For the same compound, the EC50 in [2] amounted to 1220 ± 10 nM. Also, in data set [3], the CC50 at 48 h was more than 100000 nM.

Consider `CC(=O)OC(C=C(C)C)C/C(C)=C/CC/C(C)=C/CC/C(C)=C/C[C@]1(O)C(=O)c2c(O)cc(C)c3c(O)c(C)c(O)c(c23)C1=O` (some centres unmarked) [Compound C5], for which the Kd at TRIM25 lay within 12000 to 43000 nM. The DC50 in data set [1] amounted to 730 ± 230 nM. For the same compound, the EC50 was 450 to 2220 nM in data set [2] (Influenza A virus, 24 h) and 570 ± 80 nM in data set [2]. This compound also had a CC50 at 48 h in data set [3] of more than 100000 nM.

Take `CC(C)=CCC/C(=C/CC/C(C)=C/CC/C(C)=C/C[C@]1(O)C(=O)c2c(O)cc(C)c3c(O)c(C)c(O)c(c23)C1=O)C(=O)O` [Compound C12]: the equilibrium dissociation constant (Kd) on TRIM25 was in the range of 12000 to 43000 nM. For the same compound, the DC50 in [1] was 1070 ± 100 nM. Besides, in data set [2], the EC50 came to 920 ± 20 nM. The half-maximal cytotoxic concentration (CC50) at 48 h in data set [3] was more than 100000 nM.

On to `CC(C)=CC1C/C(=C/CC/C(C)=C/CC/C(C)=C/C[C@]2(O)C(=O)c3c(O)cc(C)c4c(O)c(C)c(O)c(c34)C2=O)CO1` (some centres unmarked) [Compound C4], for which, on TRIM25, the Kd is 12000 to 43000 nM. Also, in [1], the DC50 worked out at 1150 ± 170 nM. The EC50 in data set [2] was determined as 1250 ± 10 nM. In data set [3], this compound showed a CC50 at 48 h of more than 100000 nM.

`C/C(=C\CC/C(C)=C/C[C@]1(O)C(=O)c2c(O)cc(C)c3c(O)c(C)c(O)c(c23)C1=O)CC/C=C(\CCC1OC(C)(C)OC1(C)C)C(=O)O` (some centres unmarked) [Compound C8]: the Kd at TRIM25 is 12000 to 43000 nM. In [1], the DC50 was found to be 800 ± 120 nM. The EC50 was 450 to 2220 nM in data set [2] (Influenza A virus, 24 h) and 550 ± 30 nM in data set [2]. The compound also had a CC50 at 48 h in [3] of more than 100000 nM.

Compound `CC(C)=CCC/C(C=O)=C\CC/C(C)=C/CC/C(C)=C/C[C@]1(O)C(=O)c2c(O)cc(C)c3c(O)c(C)c(O)c(c23)C1=O` [Compound C3] registered a Kd on TRIM25 of 12000 to 43000 nM. Besides, the DC50 in data set [1] was found to be 1140 ± 260 nM. In addition, the EC50 in [2] is 1420 ± 20 nM. This compound returned a CC50 at 48 h in data set [3] of more than 100000 nM.

`C/C(=C\CC/C(C)=C/C[C@]1(O)C(=O)c2c(O)cc(C)c3c(O)c(C)c(O)c(c23)C1=O)C/C=C/C1(C)CCC(C(C)(C)O)O1` (some centres unmarked) [Compound C14] registered a Kd on TRIM25 of 12000 to 43000 nM. For the same compound, in [1], the DC50 is 1020 ± 30 nM. For the same compound, the EC50 in [2] was determined as 1060 ± 90 nM. The compound further had a CC50 at 48 h in [3] of more than 100000 nM.

In the case of `C/C(=C\CC/C(C)=C/C[C@]1(O)C(=O)c2c(O)cc(C)c3c(O)c(C)c(O)c(c23)C1=O)CC/C=C(\C)CC[C@@H](O)C(C)(C)O` [Compound C6], at TRIM25, the Kd fell in the range of 12000 to 43000 nM. The DC50 in data set [1] was 2090 ± 520 nM. The EC50 in data set [2] stood at 2220 ± 40 nM. Also, the CC50 at 48 h in data set [3] was more than 100000 nM.

`CC(C)=CCC/C(=C/CC/C(C)=C/CC/C(C)=C/C[C@]1(O)C(=O)c2c(O)cc(C)c3c(O)c(C)c(O)c(c23)C1=O)CO` [Compound C2]: the equilibrium dissociation constant (Kd) at TRIM25 is 12000 to 43000 nM; on PA protein [4], 58000 nM. The DC50 in [1] is 650 ± 120 nM. In addition, the EC50 in [2] (Influenza A virus, 24 h) is 450 to 2220 nM; in [2], 580 ± 60 nM. In [3], this compound returned a CC50 at 48 h of more than 100000 nM.

For the compound `C/C(=C\C[C@]1(O)C(=O)c2c(O)cc(C)c3c(O)c(C)c(O)c(c23)C1=O)CC/C=C(\C)CCC(O)[C@@]1(C)CC[C@@H](C(C)(C)O)O1` (some centres unmarked) [Compound C9], the Kd on TRIM25 lay in the range of 12000 to 43000 nM. In [1], the DC50 stood at 1040 ± 80 nM. In addition, the EC50 in [2] came out at 1020 ± 50 nM. In addition, the CC50 at 48 h in data set [3] is more than 100000 nM.

The compound `C/C(=C\CC/C(C)=C/C[C@]1(O)C(=O)c2c(O)cc(C)c3c(O)c(C)c(O)c(c23)C1=O)CC/C=C1/CCC(C(C)(C)O)OC1` (some centres unmarked) [Compound C13] had a Kd at TRIM25 of 12000 to 43000 nM. Moreover, the DC50 in data set [1] amounted to 710 ± 20 nM. The EC50 in [2] (Influenza A virus, 24 h) was 450 to 2220 nM; in data set [2], 650 ± 10 nM. In data set [3], this compound returned a CC50 at 48 h of more than 100000 nM.

For `C/C(=C\CC/C(C)=C/C[C@]1(O)C(=O)c2c(O)cc(C)c3c(O)c(C)c(O)c(c23)C1=O)CC/C=C(\CO)CC[C@@H](O)C(C)(C)O` [Compound C1], the “Expression level of PA protein after treatment with proteasome inhibitor MG-132” value on PA protein [5] is given as “almost completely restored”. On PA protein [5], the “Restoration of PA protein after treatment with lysosome inhibitor ConA” value was “hardly affected”. In addition, the Kd on TRIM25 is 12000 to 43000 nM; on PA protein [4], 11000 nM. For the same compound, the DC50 in data set [1] came to 440 ± 90 nM. Further, the EC50 in data set [2] (Influenza A virus, 24 h) is 450 to 2220 nM; in data set [2], 450 ± 40 nM. Besides, the CC50 at 48 h in [3] was more than 100000 nM. For the same compound, the “Polyubiquitination level of PA protein in cells” value at PA protein [6] was “can promote the polyubiquitination level of PA protein”. The “Polyubiquitination level of PA protein in vitro” value on PA protein [7] is “can promote the polyubiquitination level of PA protein in vitro”. For the same compound, the “Interaction of TRIM25 with PA protein” value at TRIM25 with PA protein was “can promote the interaction of TRIM25 with PA protein”.
